{"source": "paper PMC11577759", "about": "“The structure of lipopeptides impacts their antiviral activity and mode of action against SARS-CoV-2 in vitro” (Applied and Environmental Microbiology, 2024)", "key": {"Vero E6 cells": {"tested_on": "Vero E6 cells", "test": "Cytotoxicity, CyQUANT XTT cell viability assay", "type": "cell-based, Chlorocebus sp.", "details": "for IC50 (half maximal inhibitory concentration, cytotoxicity): Vero E6 cells, XTT, mean (standard deviation), fengycin and caspofungin determined at higher concentrations in a subsequent experiment; for IC50 (half maximal inhibitory concentration, cytotoxicity) / Cell viability: 72 h; for Cell viability: 100 µg/mL, Vero E6", "description": "Chlorocebus sp. kidney epithelial cells (Vero E6; ATCC VERO C1008) were cultured in Dulbecco’s Modified Eagle medium (DMEM) High Glucose w/ Stable Glutamine w/ Sodium Pyruvate (VWR, USA) supplemented with 2% (vol/vol) of decomplemented fetal bovine serum (FBS, Biowest, France) and 1% (vol/vol) Penicillin-Streptomycin (VWR, USA). The cells were grown at 37°C in a humidified 5% CO2 atmosphere. Cells were routinely passaged when they reached 100% confluence and were passaged until passage 15.\nThe cytotoxic activity of the lipopeptides was assessed using a CyQUANT XTT Cell Viability Assay (Thermo Fisher Scientific) according to the manufacturer’s instructions. […] The cells were then incubated for 72 h at 37°C. The kit was then used following the manufacturer’s instructions, and the plates were read at 450 nm and 660 nm using a Multiskan GO Microplate Spectrophotometer (Thermo Fisher Scientific). The percentage of viable cells was calculated as (AT450 − AT660 − AB450) / (AC450 − AC660) × 100%, where AT450, AT660, AB450, AC450, and AC660 represent the absorbance of the tested well at 450 nm, of the tested well at 660 nm, of the blank (only medium) at 450 nm, of the control cells at 450 nm, and of the control cells at 660 nm, respectively. One hundred percent viability corresponds to the viability of uninfected cells. DMSO concentrations ranging from 0.5% (vol/vol) to 0.001% (vol/vol) were used as a negative control for the assay. Every sample was tested in triplicate."}, "SARS-CoV-2 [1]": {"tested_on": "SARS-CoV-2", "test": "Replication / antiviral assay, viral RNA in supernatant by RT-qPCR", "type": "cell-based", "details": "for Maximal RNA reduction at 100 µg/mL: 72 h pi, compared to untreated infected cells; for EC50 (half maximal effective concentration): SARS-CoV-2 MOI 0.01, Vero E6, viral RNA at 72 h pi by RT-qPCR, mean (standard deviation)"}, "SARS-CoV-2 [2]": {"tested_on": "SARS-CoV-2", "design": "method as in PMID 36868316", "details": "co-incubated with SARS-CoV-2; 12.5 µg/mL iturin A, 25 µg/mL mycosubtilin; Vero cells; cited from earlier work"}, "Vero cells": {"tested_on": "Vero cells", "design": "method as in earlier work", "details": "ref 38 (Shekunov et al.); cited from earlier work"}}, "data": [{"substance": "Fusaricidin", "values": [{"measurement": "IC50 (half maximal inhibitory concentration, cytotoxicity)", "setting": "Vero E6 cells", "result": "24.6 (1.1) µg/mL"}, {"measurement": "Maximal RNA reduction at 100 µg/mL", "setting": "SARS-CoV-2 [1]", "result": "3.3-log"}, {"measurement": "EC50 (half maximal effective concentration)", "setting": "SARS-CoV-2 [1]", "result": "51.2 (13.6) µg/mL"}]}, {"substance": "Iturin A", "values": [{"measurement": "Cell viability", "setting": "Vero E6 cells", "result": "no cell viability was observed"}, {"measurement": "IC50 (half maximal inhibitory concentration, cytotoxicity)", "setting": "Vero E6 cells", "result": "4.9 (0.5) µg/mL"}, {"measurement": "Maximal RNA reduction at 100 µg/mL", "setting": "SARS-CoV-2 [1]", "result": "3.9-log"}, {"measurement": "EC50 (half maximal effective concentration)", "setting": "SARS-CoV-2 [1]", "result": "18.2 (1.8) µg/mL"}, {"measurement": "Viral titer and SARS-CoV-2 cytopathic effects", "setting": "SARS-CoV-2 [2]", "result": "could reduce the viral titer and SARS-CoV-2 cytopathic effects (CPEs)"}]}, {"substance": "Lichenysin", "values": [{"measurement": "IC50 (half maximal inhibitory concentration, cytotoxicity)", "setting": "Vero E6 cells", "result": "28.1 (1.4) µg/mL"}, {"measurement": "Maximal RNA reduction at 100 µg/mL", "setting": "SARS-CoV-2 [1]", "result": "6.3-log"}, {"measurement": "Maximal RNA reduction at 100 µg/mL", "setting": "SARS-CoV-2 [1]; listed as lichenysin", "result": 6.3, "unit": "log"}, {"measurement": "EC50 (half maximal effective concentration)", "setting": "SARS-CoV-2 [1]", "result": "25.9 (3.2) µg/mL"}]}, {"substance": "Mycosubtilin", "values": [{"measurement": "Cell viability", "setting": "Vero E6 cells", "result": "no cell viability was observed"}, {"measurement": "IC50 (half maximal inhibitory concentration, cytotoxicity)", "setting": "Vero E6 cells", "result": "1.8 (0.1) µg/mL"}, {"measurement": "Maximal RNA reduction at 100 µg/mL", "setting": "SARS-CoV-2 [1]", "result": "4.1-log"}, {"measurement": "EC50 (half maximal effective concentration)", "setting": "SARS-CoV-2 [1]", "result": "12.9 (2.0) µg/mL"}, {"measurement": "Viral titer and SARS-CoV-2 cytopathic effects", "setting": "SARS-CoV-2 [2]", "result": "could reduce the viral titer and SARS-CoV-2 cytopathic effects (CPEs)"}]}, {"substance": "Polymyxin B [reference compound]", "values": [{"measurement": "IC50 (half maximal inhibitory concentration, cytotoxicity)", "setting": "Vero E6 cells", "result": ">100.0", "unit": "µg/mL"}, {"measurement": "Cytotoxicity", "setting": "Vero E6 cells; concentrations up to 100 µg/mL, Vero E6, 72 h", "result": "did not cause any cytotoxicity"}, {"measurement": "Maximal RNA reduction at 100 µg/mL", "setting": "SARS-CoV-2 [1]", "result": "0.3-log"}, {"measurement": "Maximal RNA reduction at 100 µg/mL", "setting": "SARS-CoV-2 [1]; listed as polymyxin B", "result": "no activity up to 100 µg/mL"}, {"measurement": "EC50 (half maximal effective concentration)", "setting": "SARS-CoV-2 [1]", "result": ">100.0", "unit": "µg/mL"}, {"measurement": "IC50", "setting": "Vero cells", "result": 1.1, "unit": "µg/mL"}]}, {"substance": "Pumilacidin", "values": [{"measurement": "IC50 (half maximal inhibitory concentration, cytotoxicity)", "setting": "Vero E6 cells", "result": "36.0 (3.5) µg/mL"}, {"measurement": "Maximal RNA reduction at 100 µg/mL", "setting": "SARS-CoV-2 [1]", "result": "6.3-log"}, {"measurement": "Maximal RNA reduction at 100 µg/mL", "setting": "SARS-CoV-2 [1]; listed as pumilacidin", "result": 6.3, "unit": "log"}, {"measurement": "EC50 (half maximal effective concentration)", "setting": "SARS-CoV-2 [1]", "result": "47.8 (0.4) µg/mL"}]}]}
